Tests used:
LNCaP cells = test: Cell growth by trypan blue exclusion cell counting, confirmed by cell proliferation assay kit; format: cell-based, human; conditions: 72 hours of treatment, FIG. 2
Protocol: These cells were treated with different concentrations of eugenol (0.5, 1, 3, 5 and 10 mM). Cell growth was monitored every 24 hours by counting the increase in the cell number using trypan blue exclusion assay.
Cells were treated with either eugenol (0.25, 0.5, 0.75 or 1 mM) or 2-ME (0.5, 1, 2 or 3 mM) or both (0.25, 0.5, 0.75 or 1 mM of eugenol along with 0.5 mM of 2-ME). Cell growth was measured following 72 hours of treatment as described above.

suspect cells = test: Cell cycle analysis; format: cell-based; conditions: cell cycle analysis data
Description: Therefore induction of cell death pathway by 2-ME and growth inhibition by eugenol through a different pathway presents a tremendous new weapon for use in preventing and combating cancer.

Compound | inhibition of growth of LNCaP cells (LNCaP cells; 0.5 mM of 2-ME) | effect on cell cycle profile / mechanism of growth inhibition (suspect cells) | inhibition of growth of LNCaP cells (LNCaP cells; 0.25 mM of eugenol)
COc1cc2c(cc1O)CC[C@@H]1[C@@H]2CC[C@]2(C)[C@@H](O)CC[C@@H]12 [2-ME, 2-methoxyestradiol] | about 20% | inducing apoptosis and blocking cells in G2/M phase | –
C=CCc1ccc(O)c(OC)c1 [eugenol] | – | without any significant alterations in the cells cycle profile | about 30%

Source: patent US6518261B2, “Use of eugenol in combination with other chemopreventative agents as prophylaxis for cancers” (Oncology Sciences Corporation, priority 2000, dated 2003)
